Source: patent US9051322B2, “Process for the production of a pemetrexed salt” (SCINOPHARM TAIWAN, LTD., priority 2011, dated 2015)
Where a name gives a salt, the structure may show the parent alone.

Assay: Stability of pemetrexed disodium in sodium hydroxide at different temperature (impurity content by HPLC)
Type: physicochemical
Description: In comparison with the prior art, the embodiments of the present invention have the following advantages: • 1) The reaction of the compound of formula (II) or salt thereof with an aqueous basic solution is preferably conducted at a low temperature, e.g., no more than 10° C., in comparison with the room temperature of WO2001014379 and WO1999016742. As shown in Table 1 shown below, the inventors of the present invention unexpectedly discovered that impurities can be reduced or minimized by conducting the reaction at a low temperature. As noted above, after the reaction step, the low temperature is preferably maintained during the steps of adjusting pH and adding anti-solvent. • 2) The anti-solvent is preferably added before adjusting the pH value. The inventors unexpectedly discovered that by doing so, the mixture can be diluted by the addition of the anti-solvent before the adjusting step, therefore minimizing local heat effect and formation of impurities. In comparison, WO2001014379 discloses adjusting the pH value before the addition of an anti-solvent. • 3) In accordance with the present invention, the compound of formula (II) can be converted to a pemetrexed salt (e.g., at a pH of 6.5 to 9.5). In contrast, the process of WO1999016472 comprises making pemetrexed free form first (at a pH of about 3), and then converting the free form to a salt (at a pH of about 6.5 to 9.5). The process of the present invention is simpler and more convenient. • 4) In accordance with an embodiment of the present invention, the crude pemetrexed salt may be crystallized at a room temperature; whereas in accordance with WO2001014379, the crystallizing is conducted at about 70° C. The cooling, heating, and adjusting pH steps of WO2001014379 may be avoided in accordance with the embodiment of the present invention. The process of the present invention can save workup procedures and has better control of impurity.

Which results are given for Nc1nc2[nH]cc(CCc3ccc(C(=O)N[C@@H](CCC(=O)O)C(=O)O)cc3)c2c(=O)[nH]1 [pemetrexed disodium, L-Glutamic acid, N-[4-[2-(2-amino-4,7-dihydro-4-oxo-1H-pyrrolo[2,3-d]pyrimidin-5-yl)ethyl]benzoyl]-, disodium salt]?
content of impurity based on HPLC spectra's % Area (5 °C, 1 hr): 0.012%; content of impurity based on HPLC spectra's % Area (5 °C, 2 hr): 0.013%; content of impurity based on HPLC spectra's % Area (5 °C, 4 h): 0.035%; content of impurity based on HPLC spectra's % Area (5 °C, 6 hr): 0.066%; content of impurity based on HPLC spectra's % Area (10 °C, 1 hr): 0.051%; content of impurity based on HPLC spectra's % Area (10 °C, 2 hr): 0.053%; content of impurity based on HPLC spectra's % Area (10 °C, 4 h): 0.070%; content of impurity based on HPLC spectra's % Area (10 °C, 6 hr): 0.075%; content of impurity based on HPLC spectra's % Area (15 °C, 1 hr): 0.076%; content of impurity based on HPLC spectra's % Area (15 °C, 2 hr): 0.085%; content of impurity based on HPLC spectra's % Area (15 °C, 4 h): 0.110%; content of impurity based on HPLC spectra's % Area (15 °C, 6 hr): 0.123%
